Measurements taken from patent US20250057740A1, “Stable Stannous Oral Care Product” (Colgate-Palmolive Company, priority 2018, published 2025).
One block for each compound: values may come before it.

Legend:
[1] = Stability of stannous ions over 35 days at 60° C. (FIG. 3)
Procedure: Stability of stannous ions is assessed over a period of 35 days.

[2] = aqueous Sn (II) with the named additive, 35 days
Procedure: Stability of Sn (II) in aqueous solutions, and the ability of various additives to affect this stability, is assessed.

[3] = in water; cited from earlier work

oxidative stability of stannous ([1]; SnF2 in the presence of the named additive): no oxidative stability is observed
SMILES: O=P([O-])([O-])OP(=O)([O-])[O-].[Na+].[Na+].[Na+].[Na+] [TSPP, tetrasodium pyrophosphate]

SMILES: O.O.O.O.O=P([O-])([O-])[O-].O=P([O-])([O-])[O-].[Zn+2].[Zn+2].[Zn+2] [Zinc phosphate, zinc phosphate]
prevention of the stannous-to-stannic oxidation [2]: positive impact
Ksp [3]: ~10^−35

SMILES: O=P(O)(O)O [phosphoric acid]
stannous oxidized ([1]; stannous fluoride in the presence of the named additive): 8-9%

SMILES: [F][Sn][F] [stannous fluoride, reference compound]
stannous oxidized ([1]; stannous fluoride alone): ~80%
